In patent US12303551B2, “Cellular immunotherapy compositions and uses thereof” (CERO THERPEUTICS HOLDINGS, INC., priority 2018, dated 2025):

System: HCC827 NSCLC cells
Test: FACS phagocytosis assay of TAMRA-SE labeled HCC827 cells with or without bafilomycin
Type: cell-based
Conditions: 20 nM added to co-culture
Text: FIGS. 73A-73B show ablation of CER-induced phagocytosis by bafilomycin, an inhibitor of phagolysosome V-ATPase. CER104-modified CD4+ T cells and mock transduced CD4+ T cells (control) were co-cultured with HCC827 cells that were labeled with TAMRA-SE fluorescent dye and treated with osimertinib. Phagocytosis was quantified by FACs.
T cells were transduced with lentiviral vector comprising hCER104 nucleic acid as described in Example 6. hCER104 modified T cells were co-cultured with HCC827 adenocarcinoma cells with or without osimertinib. […] FACs plots from in vitro phagocytosis assays in hCER104 modified T cells or mock transduced control T cells are shown in FIG. 73B.

## CO/C1=C\C(C)=C\[C@@H](C)[C@@H](O)[C@@H](C)C/C(C)=C/C=C/[C@H](OC)[C@@H]([C@@H](C)[C@@H](O)[C@H](C)[C@@]2(O)C[C@@H](O)[C@H](C)[C@@H](C(C)C)O2)OC1=O [bafilomycin, reference compound]
  effect on uptake of labeled HCC827 cells by hCER104 modified T cells: blocked uptake
